Laboratory results reported in patent publication US20090069300A1, “ISOQUINOLINYL AND ISOINDOLINYL DERIVATIVES AS HISTAMINE-3 ANTAGONISTS” (Wyeth, priority 2007, published 2009).
Counter-ions that a name gives are not always drawn.

Target: T1, Human Histamine H3 Receptor (Homo sapiens, UniProt Q9Y5N1)
T1 construct: expressed in transfected cells; host or cells: HEK293T (stably transfected; membranes prepared from the cells)
Test: Methyl histamine binding in human histamine H3 receptor cell line
Conditions: membranes of stably transfected HEK293T cells; methyl histamine radioligand 1 nM; one hour incubation at 30° C.; Ki from IC50 by Cheng-Prusoff; read-out: H3 Binding Ki
Procedure: Evaluation of Methyl Histamine Binding in Human Histamine H3 Receptor Cell Line
The affinity of test compounds for the histamine 3 (H3) receptor is evaluated in the following manner. […] Cells are scraped from the plate, transferred to centrifuge tubes, washed one time in PBS by centrifugation in a Sorvall RT7 Plus centrifuge (2000 rpm 10 minutes, 4° C.). The resulting pellets are stored at −80° C. until ready for use. Cells are re-suspended in buffer (50 mM Tris pH=7.5) and placed in a Dounce homogenizer, douncing ten times to homogenize cells. The homogenate is spun down by centrifugation (Sorvall RT7 Plus, 1800 rpm 10 minutes, 4° C.). The supernatant is placed in a Corex tube and spun down by centrifugation (Sorvall RC 5c Plus, 17,000 rpm 20 minutes, 4° C.). The pellet is resuspended in buffer (50 mM Tris, pH 7.5). Protein concentration (ug/ul) is determined using the Micro-BCA Protein Determination. The binding assay is set up in a 96 well microtiter plate in a total volume of 250 uL. Non-specific binding is determined in the presence of 10 uM clobenpropit. The final radioligand concentration is 1 nM. The test compound is serially diluted using the Beckman Biomek2000 to a final approximate range of 100 uM to 100 pM. Membranes are suspended in buffer, homogenized in 2 bursts of ten seconds using a Vitris mechanical homogenizer set at power setting 5. Ten μg of membranes are added to each well. Following a one hour incubation at 30° C., the reaction is terminated by the addition of ice cold buffer and rapid filtration with a Packard Filtermate Harvester through a GF/B filter pre-soaked with 1% PEI for one hour. The plate is dried for one hour at 37° C. and 60 μL Microscint Scintillant is added to each well. The CPM per well is measured on a Packard Top Count NXT. Ki values are determined in nM. […] CPM values are expressed as % specific binding and plotted vs compound concentration. A curve is fitted using a four-parameter logistic fit and the IC50 value is determined. The Ki is calculated from this using the Cheng-Prusoff equation: […]=IC50/1+(L/Kd) where L=concentration of free radioligand used in the assay, and Kd is the dissociation constant of the radioligand for the receptor. L is determined for each experiment by counting an aliquot of the diluted radioligand (corresponding to that added to each well) and the Kd has previously been determined under identical conditions for this cell line/radioligand.

T1 sequence (Q9Y5N1 whole entry): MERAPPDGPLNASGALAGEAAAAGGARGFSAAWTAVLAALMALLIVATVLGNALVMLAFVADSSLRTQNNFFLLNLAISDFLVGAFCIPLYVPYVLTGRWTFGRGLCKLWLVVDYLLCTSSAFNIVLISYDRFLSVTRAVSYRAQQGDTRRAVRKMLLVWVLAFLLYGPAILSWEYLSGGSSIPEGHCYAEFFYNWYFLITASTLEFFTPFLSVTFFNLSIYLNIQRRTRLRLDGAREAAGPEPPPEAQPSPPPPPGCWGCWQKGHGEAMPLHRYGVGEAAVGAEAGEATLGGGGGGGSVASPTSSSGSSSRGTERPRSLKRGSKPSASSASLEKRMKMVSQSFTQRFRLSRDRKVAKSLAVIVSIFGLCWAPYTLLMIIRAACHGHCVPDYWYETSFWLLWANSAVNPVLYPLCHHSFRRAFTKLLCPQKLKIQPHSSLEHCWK

| SMILES | Ki |
| --- | --- |
| COC(=O)c1ccc(-c2ccc3c(c2)CCN(CCN2CCC[C@H]2C)C3=O)cc1 [Example 25, methyl 4-(2-{2-[(2R)-2-methylpyrrolidin-1-yl]ethyl}-1-oxo-1,2,3,4-tetrahydroiso-quinolin-6-yl)benzoate] | < 10 nM |

Same assay, conditions: read-out: H3 Binding Ki

| Ki | SMILES |
| --- | --- |
| 10.1 to 25 nM | O=C1c2ccc(-c3ccc(F)cc3)cc2CCN1CCN1CCCC1 [Example 9, 6-(4-fluorophenyl)-2-(2-pyrrolidin-1-ylethyl)-3,4-dihydroiso-quinolin-1(2H)-one Hydrochloride] |
| < 10 nM | O=C1c2ccc(-c3cc(F)cc(F)c3)cc2CCN1CCN1CCCC1 [Example 10, 6-(3,5-difluorophenyl)-2-(2-pyrrolidin-1-ylethyl)-3,4-dihydroisoquinolin-1(2H)-one] |
| < 10 nM | O=C1c2ccc(-c3ccc(F)cc3F)cc2CCN1CCN1CCCC1 [Example 11, 6-(2,4-difluorophenyl)-2-(2-pyrrolidin-1-ylethyl)-3,4-dihydroisoquinolin-1(2H)-one] |
| 10.1 to 25 nM | O=C1c2ccc(-c3ccccc3F)cc2CCN1CCN1CCCC1 [Example 12, 6-(2-fluorophenyl)-2-(2-pyrrolidin-1-ylethyl)-3,4-dihydroisoquinolin-1(2H)-one] |
| 25.1 to 50 nM | O=C1c2ccc(-c3cccc(OC(F)(F)F)c3)cc2CCN1CCN1CCCC1 [Example 13, 2-(2-pyrrolidin-1-ylethyl)-6-[3-(trifluoromethoxy)phenyl]-3,4-dihydroisoquinolin-1(2H)-one] |
| 10.1 to 25 nM | O=C1c2ccc(-c3ccc(OC(F)(F)F)cc3)cc2CCN1CCN1CCCC1 [Example 14, 2-(2-pyrrolidin-1-ylethyl)-6-[4-(trifluoromethoxy)phenyl]-3,4-dihydroisoquinolin-1(2H)-one] |
| < 10 nM | N#Cc1cccc(-c2ccc3c(c2)CCN(CCN2CCCC2)C3=O)c1 [Example 15, 3-[1-oxo-2-(2-pyrrolidin-1-ylethyl)-1,2,3,4-tetrahydroisoquinolin-6-yl]benzonitrile] |
| 10.1 to 25 nM | O=C1c2ccc(-c3ccccc3)cc2CCN1CCN1CCCC1 [Example 16, 6-phenyl-2-(2-pyrrolidin-1-ylethyl)-3,4-dihydroisoquinolin-1(2H)-one] |
| < 10 nM | O=C1c2ccc(-c3ccc(F)c(F)c3)cc2CCN1CCN1CCCC1 [Example 17, 6-(3,4-difluorophenyl)-2-(2-pyrrolidin-1-ylethyl)-3,4-dihydroisoquinolin-1(2H)-one] |
| 10.1 to 25 nM | O=C1c2ccc(-c3cccc(F)c3)cc2CCN1CCN1CCCC1 [Example 18, 6-(3-fluorophenyl)-2-(2-pyrrolidin-1-ylethyl)-3,4-dihydroisoquinolin-1(2H)-one] |
| < 10 nM | N#Cc1ccc(-c2ccc3c(c2)CCN(CCN2CCCC2)C3=O)cc1 [Example 19, 4-[1-oxo-2-(2-pyrrolidin-1-ylethyl)-1,2,3,4-tetrahydroisoquinolin-6-yl]benzonitrile] |
| < 10 nM | O=C1c2ccc(-c3cccc(C(F)(F)F)c3)cc2CCN1CCN1CCCC1 [Example 20, 2-(2-pyrrolidin-1-ylethyl)-6-[3-(trifluoromethyl)phenyl]-3,4-dihydroisoquinolin-1(2H)-one] |
| 10.1 to 25 nM | O=C1c2ccc(-c3ccc4c(c3)OCO4)cc2CCN1CCN1CCCC1 [Example 21, 6-(1,3-benzodioxol-5-yl)-2-(2-pyrrolidin-1-ylethyl)-3,4-dihydroisoquinolin-1(2H)-one] |
| < 10 nM | O=C1c2ccc(-c3ccc(C(F)(F)F)cc3)cc2CCN1CCN1CCCC1 [Example 22, 2-(2-pyrrolidin-1-ylethyl)-6-[4-(trifluoromethyl)phenyl]-3,4-dihydroisoquinolin-1(2H)-one] |
| < 10 nM | COc1ccc(-c2ccc3c(c2)CCN(CCN2CCCC2)C3=O)cc1 [Example 23, 6-(4-methoxyphenyl)-2-(2-pyrrolidin-1-ylethyl)-3,4-dihydroisoquinolin-1(2H)-one] |
| < 10 nM | C[C@@H]1CCCN1CCN1CCc2ccc(-c3ccc(C#N)cc3)cc2C1=O [Example 26, 4-(2-{2-[(2R)-2-methylpyrrolidin-1-yl]ethyl}-1-oxo-1,2,3,4-tetrahydroisoquinolin-7-yl)benzonitrile] |
| 50.1 to 100 nM | C[C@@H]1CCCN1CCN1CCc2c(cccc2-c2cccc(C#N)c2)C1=O [Example 27, 3-(2-{2-[(2R)-2-methylpyrrolidin-1-yl]ethyl}-1-oxo-1,2,3,4-tetrahydroisoquinolin-5-yl)benzonitrile] |
| 10.1 to 25 nM | C[C@@H]1CCCN1CCN1CCc2c(cccc2-c2ccc(C#N)cc2)C1=O [Example 28, 4-(2-{2-[(2R)-2-methylpyrrolidin-1-yl]ethyl}-1-oxo-1,2,3,4-tetrahydroisoquinolin-5-yl)benzonitrile] |
| < 10 nM | N#Cc1ccc(-c2ccc3c(c2)CCN(CCCN2CCCC2)C3=O)cc1 [Example 32, 4-[1-oxo-2-(3-pyrrolidin-1-ylpropyl)-1,2,3,4-tetrahydroisoquinolin-6-yl]benzonitrile] |
| 25.1 to 50 nM | N#Cc1cccc(-c2ccc3c(c2)CCN(CCCN2CCCC2)C3=O)c1 [Example 33, 3-[1-oxo-2-(3-pyrrolidin-1-ylpropyl)-1,2,3,4-tetrahydroisoquinolin-6-yl]benzonitrile] |
| < 10 nM | O=C1c2ccc(-c3ccncc3)cc2CCN1CCN1CCCC1 [Example 34, 6-pyridin-4-yl-2-(2-pyrrolidin-1-ylethyl)-3,4-dihydroisoquinolin-1(2)-one Hydrochloride] |
| < 10 nM | N#Cc1ccc2c(ccn2-c2ccc3c(c2)CCN(CCN2CCCC2)C3=O)c1 [Example 35, 1-[1-oxo-2-(2-pyrrolidin-1-ylethyl)-1,2,3,4-tetrahydroisoquinolin-6-yl]-1H-indole-5-carbonitrile Hydrochloride] |
| 10.1 to 25 nM | O=C1c2ccc(-n3cccn3)cc2CCN1CCN1CCCC1 [Example 37, 6-(1H-pyrazol-1-yl)-2-(2-(pyrrolidin-1-yl)ethyl)-3,4-dihydroisoquinolin-1(2H)-one hydrochloride] |
| 10.1 to 25 nM | O=C(c1ccc2c(c1)CCN(CCN1CCCC1)C2=O)N1CCCC1 [Example 38, 6-(pyrrolidin-1-ylcarbonyl)-2-(2-pyrrolidin-1-ylethyl)-3,4-dihydroisoquinolin-1(2H)-one hydrochloride] |
| 10.1 to 25 nM | C[C@H]1CCCN1CCN1CCc2cc(-c3ccc(F)cc3)ccc2C1=O [Example 39, 6-(4-fluorophenyl)-2-{2-[(2S)-2-methylpyrrolidin-1-yl]ethyl}-3,4-dihydroiso-quinolin-1(2H)-one hydrochloride] |
| < 10 nM | C[C@@H]1CCCN1CCN1CCc2cc(-c3ccc(F)cc3)ccc2C1=O [Example 40, 6-(4-fluorophenyl)-2-{2-[(2R)-2-methylpyrrolidin-1-yl]ethyl}-3,4-dihydroisoquinolin-1(2H)-one] |
| < 10 nM | O=C1c2ccc(-c3ccc(F)cc3)cc2CCN1CCN1CCCCC1 [Example 43, 6-(4-fluorophenyl)-2-(2-piperidin-1-ylethyl)-3,4-dihydroiso-quinolin-1(2H)-one hydrochloride] |
| < 10 nM | O=C1c2ccc(-c3ccc(F)cc3)cc2CCN1CCN1CCCCCC1 [Example 44, 2-(2-azepan-1-ylethyl)-6-(4-fluorophenyl)-3,4-dihydroisoquinolin-1(2H)-one hydrochloride] |
| 10.1 to 25 nM | N#Cc1ccc(-c2ccc3c(c2)CCN(CCCN2CCCCC2)C3=O)cc1 [Example 45, 4-[1-oxo-2-(3-piperidin-1-ylpropyl)-1,2,3,4-tetrahydroisoquinolin-6-yl]benzonitrile hydrochloride] |
